Data published in PMC5469273, “Discovery of Novel Small-Molecule Inhibitors of LIM Domain Kinase for Inhibiting HIV-1” (Journal of Virology, 2017).

What was measured:
in vitro = settings: human
LIMK1 = LIMK1 (Homo sapiens, UniProt P53667); assay: LIMK1 biochemical assay, 10-dose IC50; design: purified from insect cells; His; purchased Reaction Biology Corporation, Malvern, PA; host or cells: insect cells (coexpressed with ROCK1); settings: purified LIMK1; 10 μM ATP, 1 μM cofilin; ≥2 in vitro kinase assays; read-out: LIMK1 Biochemical Inhibition IC50
Description: We selected R10015 from the potential LIMK inhibitors for further detailed mechanistic studies. The synthesis, purification, and biochemical characterization of R10015 are described in Materials and Methods below and shown in Fig. 3. We performed a cell-free assay to measure R10015 inhibition of the LIM domain kinase using purified human LIMK1 and its substrate, cofilin. […] We also performed profiling of R10015 against a panel of 62 kinases (Table 2).
Biochemical LIMK1 assays for all inhibitors were carried out by Reaction Biology Corporation, Malvern, PA, and followed the protocols described on its website. […] Reactions were carried out at 10 μM ATP, 1 μM substrate (cofilin), and 50 nM LIMK1 (final concentrations). […] The reagents were as follows: base reaction buffer, 20 mM HEPES (pH 7.5), 10 mM MgCl2, 1 mM EGTA, 0.02% Brij 35, 0.02 mg/ml bovine serum albumin (BSA), 0.1 mM Na3VO4, 2 mM dithiothreitol (DTT), 1% DMSO. No additional cofactors were added to the reaction mixture. The reaction procedures were as follows. (i) The indicated substrate was prepared in freshly made base reaction buffer. (ii) Any required cofactors were delivered to the substrate solution described above. (iii) The indicated kinase was delivered into the substrate solution and gently mixed. (iv) The compounds in DMSO were delivered into the kinase reaction mixture. (v) [^33P]ATP (final specific activity, 0.01 μCi/μl) was delivered into the reaction mixture to initiate the reaction. […] (viii) The filters were washed extensively in 0.1% phosphoric acid.

HIV-1(NL4-3) = assay type: cell-based; settings: for Infectivity (percentage of GFP+ cells): 100 μM, pretreated 1 h, HIV-1(NL4-3) 3 h, washed, viable cells only, paired DMSO controls 1.76-3.37%; for X4 HIV infection in screening: at nontoxic dosages, Fig. 1C and 2
[1] = oral gavage 20 mg/kg daily, 7 days

Chain of LIMK1 (P53667 285-638): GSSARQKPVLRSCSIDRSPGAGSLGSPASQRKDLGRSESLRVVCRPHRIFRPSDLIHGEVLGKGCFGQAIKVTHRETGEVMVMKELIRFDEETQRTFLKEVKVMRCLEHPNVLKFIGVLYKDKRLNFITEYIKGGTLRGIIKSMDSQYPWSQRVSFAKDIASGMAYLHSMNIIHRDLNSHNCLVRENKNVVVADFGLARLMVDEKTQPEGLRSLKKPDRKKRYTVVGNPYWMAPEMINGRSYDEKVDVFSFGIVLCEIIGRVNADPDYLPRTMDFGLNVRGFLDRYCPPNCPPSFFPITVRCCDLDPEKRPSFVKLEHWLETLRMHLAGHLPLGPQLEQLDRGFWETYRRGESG

Row | SMILES | viability at 100 µM (in vitro) [%] | IC50 (LIMK1) [nM] | Infectivity (percentage of GFP+ cells) (HIV-1(NL4-3); 48 h) [%] | X4 HIV infection in screening (HIV-1(NL4-3)) | HIV-dependent GFP expression (GFP+ cells) (HIV-1(NL4-3); etravirine 100 nM, HIV(NL4-3), 48 h, Fig. 1B) [%] | body weight over a week compared to PBS control [1]
1 | Cc1c[nH]c2ncnc(N3CCC(c4nc5cc(C#N)ccc5[nH]4)CC3)c12 [Compound R8212] | 93.3 | 44 ± 6 | 2.22 | blocked |  | 
2 | CC1(c2nc3ccc(C(=O)NC4CCC4)cc3[nH]2)CCN(c2ncnc3[nH]ccc23)CC1 [Compound R8482] | 93.4 | 41 ± 4 | 1.10 | blocked |  | 
3 | Cc1cc(C#N)cc(C)c1Oc1nc(Nc2ccc(C#N)cc2)nc(N)c1Br [Etravirine, etravirine, reference compound] |  |  |  |  | 0.01 | 
4 | Cc1c[nH]c2ncnc(-c3ccc(NC(=O)N(CCO)c4ccccc4)cc3)c12 [Compound R7826] | 96.2 |  | 1.02 | blocked |  | gained weight
5 | CCOC(=O)c1ccc2nc(N3CCN(c4ncnc5[nH]cc(Cl)c45)[C@@H](C)C3)[nH]c2c1 [Compound R10659] | 89.8 |  | 1.30 | blocked |  | 
6 | Cc1c[nH]c2ncnc(-c3ccc(-c4nc5ccc(C(=O)NC6CCCC6)cc5[nH]4)c(F)c3)c12 [Compound R8584] | 93.7 | 50 ± 7 | 0.65 | blocked |  | 
7 | CC(C)NC(=O)c1ccc2[nH]c(N3CCN(c4ncnc5[nH]cc(Cl)c45)C[C@@H]3C)nc2c1 [Compound R10543] | 90.1 | 5 ± 2 | 0.75 | blocked |  | 
